{"source": "patent US20250268884A1", "about": "“Deuterated Domperidone for Treating Gastroparesis” (CinDome Pharma, Inc., priority 2022, published 2025)", "key": {"[1]": {"test_system": "heart rate in healthy subjects", "assay": "Thorough QT study, placebo-corrected change-from-baseline HR (ΔΔHR)", "assay_type": "in vivo, human"}, "[2]": {"conditions": "for AUC% extrap / CL/F / RAUC / RCmax / λz: Day 14 (steady state), mean", "procedure": "The following PK parameters were calculated for deuterated domperidone from plasma concentrations (Day 1) using a noncompartmental method, if the data permitted: • Cmax determined directly from the concentration-time profile.\n[formula] • λz calculated from a semi-logarithmic plot of the plasma concentration versus time curve. The parameter was calculated by linear least-squares regression analysis using points in the terminal logarithmic-linear phase; • T½ calculated as natural logarithm (2)/λz; • CL/F calculated as Dose/AUC0-∞; • Vz/F calculated as Dose/(λz×AUC0-∞); • Rcmax calculated as Cmax on Day 14/Cmax on Day 1; and • RAUC calculated as AUCtau on Day 14/AUCtau on Day 1."}, "[3]": {"test_system": "adults with idiopathic or diabetic gastroparesis", "assay": "Clinical Grading Assessment Scale / CPGAS, Day 14, Phase 2a", "assay_type": "in vivo, human", "conditions": "Day 14, ITT; for CPGAS score, investigator, mean (SD) / CPGAS score, subject, mean (SD): scale +7 to −7", "from_the_text": "For assessment of global clinical response, the following question was utilized at Day 14: “In thinking about the last 2 weeks, how would you say your stomach/gastroparesis-related problems/symptoms have been compared to the period before you started treatment on this study?” Responses were the following: improved, no change, or worsened. Subjects were asked to quantify their therapeutic response using the Clinical Patient Grading Assessment Scale. Subjects picked a number over a range (+7=completely better; 0=no change; −7=very much worse) that best answered the question."}}, "note": "Read-outs that look alike come from different tables or passages of the source.", "data": [{"smiles": "[2H]c1c([2H])c([2H])c2c([nH]c(=O)n2CCCN2CCC(n3c(=O)[nH]c4cc(Cl)ccc43)CC2)c1[2H]", "note": "[Deudomperidone, 1-{3-[4-(5-chloro-2-oxo-2,3-dihydro-1H-1,3-benzodiazol-1-yl)piperidin-1yl]propyl}-2,3-dihydro(4,5,6,7-D4)-1H-1,3-benzodiazol-2-one]", "values": [{"measurement": "bradycardic outliers", "setting": "[1]; 30 mg treatment group, at 5 time points", "result": 1}, {"measurement": "ΔΔHR LS Mean", "setting": "[1]; 0.5 H Post Dose, 30 mg CIN-102 (Treatment A)", "result": "−0.5", "unit": "bpm"}, {"measurement": "ΔΔHR LS Mean", "setting": "[1]; 0.5 H Post Dose, 100 mg CIN-102 (Treatment B)", "result": "−0.5", "unit": "bpm"}, {"measurement": "ΔΔHR LS Mean", "setting": "[1]; 1 H Post Dose, 30 mg CIN-102 (Treatment A)", "result": "−1.4", "unit": "bpm"}, {"measurement": "ΔΔHR LS Mean", "setting": "[1]; 1 H Post Dose, 100 mg CIN-102 (Treatment B)", "result": "−1.1", "unit": "bpm"}, {"measurement": "ΔΔHR LS Mean", "setting": "[1]; 1.5 H Post Dose, 30 mg CIN-102 (Treatment A)", "result": "−1.0", "unit": "bpm"}, {"measurement": "ΔΔHR LS Mean", "setting": "[1]; 1.5 H Post Dose, 100 mg CIN-102 (Treatment B)", "result": "−0.7", "unit": "bpm"}, {"measurement": "ΔΔHR LS Mean", "setting": "[1]; 2 H Post Dose, 30 mg CIN-102 (Treatment A)", "result": 0.4, "unit": "bpm"}, {"measurement": "ΔΔHR LS Mean", "setting": "[1]; 2 H Post Dose, 100 mg CIN-102 (Treatment B)", "result": 0.2, "unit": "bpm"}, {"measurement": "ΔΔHR LS Mean", "setting": "[1]; 2.5 H Post Dose, 30 mg CIN-102 (Treatment A)", "result": "−0.7", "unit": "bpm"}, {"measurement": "ΔΔHR LS Mean", "setting": "[1]; 2.5 H Post Dose, 100 mg CIN-102 (Treatment B)", "result": "−0.8", "unit": "bpm"}, {"measurement": "ΔΔHR LS Mean", "setting": "[1]; 3 H Post Dose, 30 mg CIN-102 (Treatment A)", "result": "−1.4", "unit": "bpm"}, {"measurement": "ΔΔHR LS Mean", "setting": "[1]; 3 H Post Dose, 100 mg CIN-102 (Treatment B)", "result": "−1.0", "unit": "bpm"}, {"measurement": "ΔΔHR LS Mean", "setting": "[1]; 4 H Post Dose, 30 mg CIN-102 (Treatment A)", "result": 0.0, "unit": "bpm"}, {"measurement": "ΔΔHR LS Mean", "setting": "[1]; 4 H Post Dose, 100 mg CIN-102 (Treatment B)", "result": 0.1, "unit": "bpm"}, {"measurement": "ΔΔHR LS Mean", "setting": "[1]; 5 H Post Dose, 30 mg CIN-102 (Treatment A)", "result": "−0.3", "unit": "bpm"}, {"measurement": "ΔΔHR LS Mean", "setting": "[1]; 5 H Post Dose, 100 mg CIN-102 (Treatment B)", "result": "−0.8", "unit": "bpm"}, {"measurement": "ΔΔHR LS Mean", "setting": "[1]; 6 H Post Dose, 30 mg CIN-102 (Treatment A)", "result": "−0.2", "unit": "bpm"}, {"measurement": "ΔΔHR LS Mean", "setting": "[1]; 6 H Post Dose, 100 mg CIN-102 (Treatment B)", "result": "−0.5", "unit": "bpm"}, {"measurement": "ΔΔHR LS Mean", "setting": "[1]; 8 H Post Dose, 30 mg CIN-102 (Treatment A)", "result": 0.7, "unit": "bpm"}, {"measurement": "ΔΔHR LS Mean", "setting": "[1]; 8 H Post Dose, 100 mg CIN-102 (Treatment B)", "result": "−0.9", "unit": "bpm"}, {"measurement": "ΔΔHR LS Mean", "setting": "[1]; 12 H Post Dose, 30 mg CIN-102 (Treatment A)", "result": "−0.5", "unit": "bpm"}, {"measurement": "ΔΔHR LS Mean", "setting": "[1]; 12 H Post Dose, 100 mg CIN-102 (Treatment B)", "result": "−0.8", "unit": "bpm"}, {"measurement": "ΔΔHR LS Mean", "setting": "[1]; 24 H Post Dose, 30 mg CIN-102 (Treatment A)", "result": 1.1, "unit": "bpm"}, {"measurement": "ΔΔHR LS Mean", "setting": "[1]; 24 H Post Dose, 100 mg CIN-102 (Treatment B)", "result": 0.1, "unit": "bpm"}, {"measurement": "ΔΔHR LS Mean", "setting": "[1]; 36 H Post Dose, 30 mg CIN-102 (Treatment A)", "result": 0.5, "unit": "bpm"}, {"measurement": "ΔΔHR LS Mean", "setting": "[1]; 36 H Post Dose, 100 mg CIN-102 (Treatment B)", "result": "−0.4", "unit": "bpm"}, {"measurement": "ΔΔHR LS Mean", "setting": "[1]; 48 H Post Dose, 30 mg CIN-102 (Treatment A)", "result": 0.9, "unit": "bpm"}, {"measurement": "ΔΔHR LS Mean", "setting": "[1]; 48 H Post Dose, 100 mg CIN-102 (Treatment B)", "result": 0.5, "unit": "bpm"}, {"measurement": "tachycardic outliers", "setting": "[1]; across treatment periods", "result": "no tachycardic outliers"}, {"measurement": "mean ΔΔHR, by-time point analysis", "setting": "[1]; both dose levels, all post-dose time points", "result": "below 10 bpm"}, {"measurement": "AUC% extrap", "setting": "[2]; 5 mg BID", "result": 11.72, "unit": "%"}, {"measurement": "CL/F", "setting": "[2]; 5 mg BID", "result": 48.394, "unit": "L/h"}, {"measurement": "RAUC", "setting": "[2]; 5 mg BID", "result": 1.653}, {"measurement": "RCmax", "setting": "[2]; 5 mg BID", "result": 1.838}, {"measurement": "λz", "setting": "[2]; 5 mg BID", "result": 0.0413, "unit": "h⁻¹"}, {"measurement": "AUC% extrap", "setting": "[2]; 10 mg BID", "result": 9.31, "unit": "%"}, {"measurement": "CL/F", "setting": "[2]; 10 mg BID", "result": 69.640, "unit": "L/h"}, {"measurement": "RAUC", "setting": "[2]; 10 mg BID", "result": 2.430}, {"measurement": "RCmax", "setting": "[2]; 10 mg BID", "result": 2.179}, {"measurement": "λz", "setting": "[2]; 10 mg BID", "result": 0.0454, "unit": "h⁻¹"}, {"measurement": "AUC% extrap", "setting": "[2]; 20 mg QD", "result": 8.48, "unit": "%"}, {"measurement": "CL/F", "setting": "[2]; 20 mg QD", "result": 55.317, "unit": "L/h"}, {"measurement": "RAUC", "setting": "[2]; 20 mg QD", "result": 2.011}, {"measurement": "RCmax", "setting": "[2]; 20 mg QD", "result": 2.620}, {"measurement": "λz", "setting": "[2]; 20 mg QD", "result": 0.0454, "unit": "h⁻¹"}, {"measurement": "exposure (Cmax and AUC) in patients with gastroparesis compared to that expected from healthy subjects", "setting": "[2]; given dose level", "result": "approximately 2 fold"}, {"measurement": "Clinical Grading Assessment Scale, investigator response: Improved", "setting": "[3]; 5 mg BID, N′ = 9", "result": "6 (66.7) n (%)"}, {"measurement": "Clinical Grading Assessment Scale, investigator response: No change", "setting": "[3]; 5 mg BID, N′ = 9", "result": "3 (33.3) n (%)"}, {"measurement": "Clinical Grading Assessment Scale, investigator response: Worsened", "setting": "[3]; 5 mg BID, N′ = 9", "result": "0 (0.0) n (%)"}, {"measurement": "Clinical Grading Assessment Scale, subject response: Improved", "setting": "[3]; 5 mg BID, N′ = 9", "result": "5 (55.6) n (%)"}, {"measurement": "Clinical Grading Assessment Scale, subject response: No change", "setting": "[3]; 5 mg BID, N′ = 9", "result": "4 (44.4) n (%)"}, {"measurement": "Clinical Grading Assessment Scale, subject response: Worsened", "setting": "[3]; 5 mg BID, N′ = 9", "result": "0 (0.0) n (%)"}, {"measurement": "CPGAS score, investigator, mean (SD)", "setting": "[3]; 5 mg BID", "result": "2.2 (2.05)"}, {"measurement": "CPGAS score, subject, mean (SD)", "setting": "[3]; 5 mg BID", "result": "2.1 (2.26)"}, {"measurement": "Clinical Grading Assessment Scale, subject response: Improved", "setting": "[3]; 10 mg BID, N′ = 23", "result": "17 (73.9) n (%)"}, {"measurement": "Clinical Grading Assessment Scale, subject response: No change", "setting": "[3]; 10 mg BID, N′ = 23", "result": "5 (21.7) n (%)"}, {"measurement": "Clinical Grading Assessment Scale, subject response: Worsened", "setting": "[3]; 10 mg BID, N′ = 23", "result": "1 (4.3) n (%)"}, {"measurement": "Clinical Grading Assessment Scale, investigator response: Improved", "setting": "[3]; 10 mg BID, N′ = 30", "result": "22 (73.3) n (%)"}, {"measurement": "Clinical Grading Assessment Scale, investigator response: No change", "setting": "[3]; 10 mg BID, N′ = 30", "result": "8 (26.7) n (%)"}, {"measurement": "Clinical Grading Assessment Scale, investigator response: Worsened", "setting": "[3]; 10 mg BID, N′ = 30", "result": "0 (0.0) n (%)"}, {"measurement": "CPGAS score, investigator, mean (SD)", "setting": "[3]; 10 mg BID", "result": "2.5 (1.98)"}, {"measurement": "CPGAS score, subject, mean (SD)", "setting": "[3]; 10 mg BID", "result": "3.0 (2.70)"}, {"measurement": "Clinical Grading Assessment Scale, subject response: Improved", "setting": "[3]; 20 mg QD, N′ = 14", "result": "9 (64.3) n (%)"}, {"measurement": "Clinical Grading Assessment Scale, subject response: No change", "setting": "[3]; 20 mg QD, N′ = 14", "result": "5 (35.7) n (%)"}, {"measurement": "Clinical Grading Assessment Scale, subject response: Worsened", "setting": "[3]; 20 mg QD, N′ = 14", "result": "0 (0.0) n (%)"}, {"measurement": "Clinical Grading Assessment Scale, investigator response: Improved", "setting": "[3]; 20 mg QD, N′ = 15", "result": "11 (73.3) n (%)"}, {"measurement": "Clinical Grading Assessment Scale, investigator response: No change", "setting": "[3]; 20 mg QD, N′ = 15", "result": "4 (26.7) n (%)"}, {"measurement": "Clinical Grading Assessment Scale, investigator response: Worsened", "setting": "[3]; 20 mg QD, N′ = 15", "result": "0 (0.0) n (%)"}, {"measurement": "CPGAS score, investigator, mean (SD)", "setting": "[3]; 20 mg QD", "result": "2.9 (2.26)"}, {"measurement": "CPGAS score, subject, mean (SD)", "setting": "[3]; 20 mg QD", "result": "2.9 (2.62)"}]}]}
